The source of these data is patent publication US20250044299A1, “PROTEIN STABILITY ASSAY” (Medicines Discovery Catapult Limited, priority 2021, published 2025).

Holding throughout (assay type): binding
Test [1] addresses p38α MAPK (Homo sapiens, UniProt Q16539). In words: Protein stability assay screening study, AlphaLISA endpoint, HEK293T cell lysate, compound concentration response at fixed AEA or EA (Example 2). The following applies: fixed 22% AEA or 20% EA, 10-point concentration response. More on the design: endogenous in cells; host or cells: HEK293T. On the procedure:
The fixed denaturant concentration to be added was made up as a 5/4 stock so that when 8 μl of denaturant was added to 2 μl lysate the final volume was 10 μl and the denaturant concentrations were as listed above. After compound/lysate incubation was complete 8 μl of the prepared AEA or EA stock was added to each well of separate plates, the contents of the plates were settled by a short pulse spin, sealed, and then incubated with shaking at 800 rpm for 120 minutes on a heated plate shaker set to 21° C. For signal detection an antibody detection mix was made up no more than 20 minutes prior to use. […] 10 μl of antibody bead mix was added to each test well, the contents of the plates were settled by a short pulse spin, sealed, shaken gently for 1-2 minutes, wrapped in foil, and then incubated for 16-18 hours in the dark. After incubation the plates were read on a fluorescence detecting plate reader (Excitation 680 nm, Emission 615 nm) to determine well signals. Concentration response curves were produced from normalised data using the Genedata Screener data analysis package, and EC50 values generated to allow data comparison between the two denaturant types.
Background: In Alpha technology, singlet oxygen from a donor bead excites a nearby acceptor bead.

The target in test [2] is T1, CDK9 (Homo sapiens, UniProt P50750).
T1 construct: Lysate from U-2 OS cells grown in continuous culture; endogenous in cells; b320 says HEK293T
T1 sequence (P50750 whole entry): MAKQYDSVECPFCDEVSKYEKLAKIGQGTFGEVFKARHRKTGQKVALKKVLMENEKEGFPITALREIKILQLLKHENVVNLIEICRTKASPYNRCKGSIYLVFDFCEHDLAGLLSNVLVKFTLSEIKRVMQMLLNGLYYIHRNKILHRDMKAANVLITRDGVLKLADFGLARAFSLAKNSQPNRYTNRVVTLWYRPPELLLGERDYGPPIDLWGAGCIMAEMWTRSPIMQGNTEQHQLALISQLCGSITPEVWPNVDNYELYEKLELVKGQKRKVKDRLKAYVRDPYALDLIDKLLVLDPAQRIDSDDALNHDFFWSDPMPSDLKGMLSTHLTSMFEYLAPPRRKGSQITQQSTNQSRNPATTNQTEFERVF
T1 sequence (O60563 whole entry partner): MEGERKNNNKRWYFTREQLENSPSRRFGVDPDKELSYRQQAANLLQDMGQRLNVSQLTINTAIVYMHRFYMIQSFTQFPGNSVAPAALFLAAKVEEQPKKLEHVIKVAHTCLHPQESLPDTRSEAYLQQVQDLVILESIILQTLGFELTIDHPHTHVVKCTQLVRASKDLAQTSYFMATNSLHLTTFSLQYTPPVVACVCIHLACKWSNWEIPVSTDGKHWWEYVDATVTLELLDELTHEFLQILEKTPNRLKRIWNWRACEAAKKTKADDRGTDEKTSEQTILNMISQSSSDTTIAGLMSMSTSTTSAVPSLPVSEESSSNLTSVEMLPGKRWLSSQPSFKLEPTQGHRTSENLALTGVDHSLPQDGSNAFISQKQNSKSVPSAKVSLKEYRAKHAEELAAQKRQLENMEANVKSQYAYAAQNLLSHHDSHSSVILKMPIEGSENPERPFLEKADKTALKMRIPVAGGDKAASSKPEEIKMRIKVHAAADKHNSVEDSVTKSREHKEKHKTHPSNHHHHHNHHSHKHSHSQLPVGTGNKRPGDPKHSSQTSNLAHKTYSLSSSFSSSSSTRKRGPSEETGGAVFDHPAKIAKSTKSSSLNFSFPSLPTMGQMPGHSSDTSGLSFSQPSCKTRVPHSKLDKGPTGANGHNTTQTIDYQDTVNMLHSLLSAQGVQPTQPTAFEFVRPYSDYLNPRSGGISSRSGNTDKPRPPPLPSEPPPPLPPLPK
The experiment in a line: Protein stability assay with Western blot endpoint, cell lysate, AEA titration (Example 5). As to conditions: 100 μM compound as printed, vs DMSO. Here is the method:
(§1) Lysate from U-2 OS cells grown in continuous culture at 5% CO2/37° C. in full growth media (RPMI (Gibco 11835-063), 10% FCS (Gibco F7524) 1% Glutamax (Gibco 35050-061)) was produced by growing cells in T175 flasks to 85% confluence, removing from the surface using 3 ml Tryple Select (Gibco 12563011), centrifuging (1000 rpm for 4 minutes) to pellet, washing cell pellet two times in DPBS (Gibco 14190-094), resuspending 1 ml of DPBS (Gibco 14190-094) containing 1× HALT Protease and Phosphatase inhibitor cocktail (Thermo Scientific 78440) per flask and lysing by three cycles of a liquid nitrogen freeze followed by thawing at room temperature. […]
Lysate/compound mixes were incubated for 30-60 minutes at room temperature. While incubating, fresh 100% AEA (Acetone (11443733) Ethanol (10437341) and Acetic Acid (10365020), all from Fisher Scientific in a ratio of 50:50:0.1) denaturant was made in a glass bottle ready for use. An aliquot of 100% AEA was diluted to 50% in DPBS (Gibco 14190-094) ready to produce either titration curves or a fixed concentration of denaturant. […]
(A western blot detects proteins with antibodies after separation by electrophoresis.)

Test [3] concerns the target T2, AKT1 (Homo sapiens, UniProt P31749).
T2 construct: endogenous in cells; host or cells: HEK293T
The experiment in a line: Protein stability assay, AlphaLISA endpoint, HEK293T cell lysate, EA (Example 8). On the procedure:
as §1, with “HEK293T” for “U-2 OS”, “in” for “in T175”, “resuspending in” for “resuspending”
To run the protein stability assay, an aliquot of HEK293T cell lysate at 4 μg/μl was thawed at room temperature and 2 μl added to each well of a 384-well White ProxiPlate (Perkin Elmer 6008280) containing […] MK-2206 (LKT Laboratories M400220) or an equivalent volume of DMSO dosed using the Labcyte ECHO. […] While incubating, fresh 100% EA (Ethanol (10437341) and Acetic Acid (10365020), all from Fisher Scientific in a ratio of 100:0.1) denaturant was made in a glass bottle ready for use. An aliquot of 100% EA was diluted to 50% in DPBS (Gibco 14190-094) ready to produce titration curves of denaturant. […]

Chain of p38α MAPK (Q16539 whole entry): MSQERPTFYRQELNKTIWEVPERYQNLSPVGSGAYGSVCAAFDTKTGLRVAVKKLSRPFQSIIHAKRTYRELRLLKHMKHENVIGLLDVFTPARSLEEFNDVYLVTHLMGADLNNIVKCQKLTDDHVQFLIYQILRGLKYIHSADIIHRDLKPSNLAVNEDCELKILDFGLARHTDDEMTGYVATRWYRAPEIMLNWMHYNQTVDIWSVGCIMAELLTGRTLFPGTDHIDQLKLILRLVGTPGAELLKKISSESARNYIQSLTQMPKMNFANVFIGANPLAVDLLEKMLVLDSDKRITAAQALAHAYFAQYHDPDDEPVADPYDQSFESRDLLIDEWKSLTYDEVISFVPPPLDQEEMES
T2 sequence (P31749 whole entry): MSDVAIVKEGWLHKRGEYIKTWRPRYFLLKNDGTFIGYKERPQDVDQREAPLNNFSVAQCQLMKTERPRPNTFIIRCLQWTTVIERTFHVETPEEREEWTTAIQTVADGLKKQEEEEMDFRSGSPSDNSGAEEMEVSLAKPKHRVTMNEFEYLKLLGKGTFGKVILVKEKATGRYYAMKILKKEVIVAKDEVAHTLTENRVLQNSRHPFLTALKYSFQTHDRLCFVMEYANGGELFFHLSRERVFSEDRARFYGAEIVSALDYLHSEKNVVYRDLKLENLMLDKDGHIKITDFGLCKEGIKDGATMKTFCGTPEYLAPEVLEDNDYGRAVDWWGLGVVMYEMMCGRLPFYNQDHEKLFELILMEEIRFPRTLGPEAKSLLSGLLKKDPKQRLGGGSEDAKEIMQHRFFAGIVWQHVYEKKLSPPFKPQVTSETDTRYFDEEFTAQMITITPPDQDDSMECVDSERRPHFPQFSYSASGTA

For the molecule `O=c1ncn2nc(Sc3ccc(F)cc3F)ccc2c1-c1c(Cl)cccc1Cl` [VX 745], the “stabilisation of protein, compound concentration response curves” value in test [1] is given as “stabilisation of protein in a dose dependent manner”.

On to `Cc1c(F)cc(C(=O)NC2CC2)cc1-c1c(F)cn2c(C(C)(C)C)nnc2c1F` [AL 8697], for which the “stabilisation of protein, compound concentration response curves” value in test [1] is “stabilisation of protein in a dose dependent manner”.

In the case of `Cc1ncc(-c2ccnc(Nc3ccc(S(C)(=O)=O)cc3)n2)n1C(C)C` [AZD5438], the “stabilisation of CDK9 protein against chemical denaturation” value in test [2] was “increased stabilisation of CDK9 protein”.

As to `NC1(c2ccc(-c3nc4ccn5c(=O)[nH]nc5c4cc3-c3ccccc3)cc2)CCC1` [MK-2206], the “stabilisation of AKT1 protein (shift in protein denaturation curves)” value in test [3] (10 μM compound, EA titration, vs DMSO only) was “stabilisation of AKT1 protein”. Also, in test [3] (fixed 18% EA), the “AKT1 protein stabilisation, concentration response curve” value is listed as “AKT1 protein stabilisation by MK-2206 in a dose dependent manner”.
